# From patent publication US10583113B2, “Cromolyn compositions for treatment of pulmonary fibrosis” (Respivant Sciences, GmbH, priority 2016, dated 2020)
# What was measured:
# [1] = available formulations of DSCG, not the compositions of the disclosure; cited from earlier work
# [2] = Pharmacokinetics of cromolyn sodium in plasma and lung after single intraperitoneal injection; type: in vivo, male BALB/c mice; conditions: single IP injection, 10 mg/kg and 100 mg/kg
# Protocol: BALB/c male mice, weighing 22±2 g, were provided by BioLasco Taiwan. All animals were maintained in a well-controlled temperature (20-24° C.) and humidity (30%-70%) environment with 12 hours light/dark cycles. The mice were given free access to a standard lab diet [MFG (Oriental Yeast Co., Ltd., Japan)] and autoclaved tap water.
# The solution was administered to the mice by IP injection at concentrations of 10 mg/kg and 100 mg/kg. The dosing volume for both dose strengths was 5 mL/kg.
# The mice were sedated under general inhalant anesthesia (3% isoflurane) for blood collection by cardiac puncture. […]
# The plasma samples were processed using acetonitrile (ACN) precipitation and analyzed by LC-MS/MS. […] The processed plasma samples were stored at −70° C. until receiving LC-MS/MS analysis, at which time peak areas were recorded, and the concentrations of the test substance in the unknown plasma samples were determined using the respective calibration curve. The reportable linear range of the assay was determined, along with the lower limit of quantitation (LLQ).
# Each lung was homogenized in 1.5 mL cold phosphate-buffered saline (PBS) at pH 7.4 for 10 seconds on ice. The lung homogenate was centrifuged at 5,400×g for 15 minutes at 4° C., and the supernatant was subsequently processed using ACN precipitation and analyzed by LC-MS/MS. […]
smiles,measurement,setting,value
"O=C([O-])c1cc(=O)c2c(OCC(O)COc3cccc4oc(C(=O)O)cc(=O)c34)cccc2o1.[Na+] [cromolyn sodium, disodium 5,5′-(2-hydroxypropane-1,3-diyl)bis(oxy)bis(4-oxo-4H-chromene-2-carboxylate)]",Bioavailability of the available formulations,[1],approximately 1%
same,Exposure of cromolyn sodium in plasma and lungs,[2],Significant exposure
